#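 Following 48 hours of exposure in 96-well plates, responses at five concentrations were used to interpolate endpoints linearly. TGI denotes the concentration required for complete inhibition of growth.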
# Experiments:
# Test in all cases: NCI anticancer screen, dose series, 48 h
# SNB-75 CNS = system: SNB-75 CNS
# NCI-H522 lung = system: NCI-H522 lung
# SR leukemia = system: SR leukemia
# BT-549 breast = system: BT-549 breast
# NCI-H226 lung = system: NCI-H226 lung
# HCT-116 colon = system: HCT-116 colon
# SK-MEL-5 melanoma = system: SK-MEL-5 melanoma
# MDA-MB-231 breast = system: MDA-MB-231 breast
# OVCAR-8 ovarian = system: OVCAR-8 ovarian
# SK-OV-3 ovarian = system: SK-OV-3 ovarian
# TK-10 renal = system: TK-10 renal
# SF-295 CNS = system: SF-295 CNS
# UACC-62 melanoma = system: UACC-62 melanoma
# NCI-H460 lung = system: NCI-H460 lung
# HCT-15 colon = system: HCT-15 colon
# EKVX NSCLC = system: EKVX NSCLC
# NCI-H23 lung = system: NCI-H23 lung
# CAKI-1 renal = system: CAKI-1 renal
# HCC-2998 colon = system: HCC-2998 colon
# IGROV1 ovarian = system: IGROV1 ovarian
# HOP-92 NSCLC = system: HOP-92 NSCLC
# K-562 leukemia = system: K-562 leukemia
# M14 melanoma = system: M14 melanoma
# PC-3 prostate = system: PC-3 prostate
# SF-268 CNS = system: SF-268 CNS
# MCF7 breast = system: MCF7 breast
# LOX IMVI melanoma = system: LOX IMVI melanoma
# OVCAR-5 ovarian = system: OVCAR-5 ovarian
# T-47D breast = system: T-47D breast
# SF-539 CNS = system: SF-539 CNS
# UACC-257 melanoma = system: UACC-257 melanoma
# UO-31 renal = system: UO-31 renal
# SNB-19 CNS = system: SNB-19 CNS
# OVCAR-3 ovarian = system: OVCAR-3 ovarian
# KM12 colon = system: KM12 colon
# MOLT-4 leukemia = system: MOLT-4 leukemia
# U251 CNS = system: U251 CNS
# ACHN renal = system: ACHN renal
# RXF 393 renal = system: RXF 393 renal
# DU-145 prostate = system: DU-145 prostate
# MDA-MB-435 = system: MDA-MB-435
# A498 renal = system: A498 renal
# 786-0 renal = system: 786-0 renal
# SN12C renal = system: SN12C renal
# HS 578T breast = system: HS 578T breast
# SK-MEL-2 melanoma = system: SK-MEL-2 melanoma
# COLO 205 colon = system: COLO 205 colon
# MDA-N = system: MDA-N
# RPMI-8226 leukemia = system: RPMI-8226 leukemia
# NCI/ADR-RES ovarian = system: NCI/ADR-RES ovarian
# SK-MEL-28 melanoma = system: SK-MEL-28 melanoma
# HT29 colon = system: HT29 colon
# A549 NSCLC = system: A549 NSCLC
# HOP-62 NSCLC = system: HOP-62 NSCLC
# OVCAR-4 ovarian = system: OVCAR-4 ovarian
# CCRF-CEM leukemia = system: CCRF-CEM leukemia
# HL-60(TB) leukemia = system: HL-60(TB) leukemia
# MALME-3M melanoma = system: MALME-3M melanoma
# SW-620 colon = system: SW-620 colon
compound,measurement,setting,value
Cc1cc2c([N+](=O)[O-])cc3c(c2o1)C(=O)C=CC3=O,TGI,SNB-75 CNS,> 61.5 µM
same,TGI,NCI-H522 lung,3.32 µM
same,TGI,SR leukemia,> 76.4 µM
same,TGI,BT-549 breast,30.4 µM
same,TGI,NCI-H226 lung,> 75.1 µM
same,TGI,HCT-116 colon,10.5 µM
same,TGI,SK-MEL-5 melanoma,28.1 µM
same,TGI,MDA-MB-231 breast,40.2 µM
same,TGI,OVCAR-8 ovarian,> 55.7 µM
same,TGI,SK-OV-3 ovarian,> 80.1 µM
same,TGI,TK-10 renal,5.72 µM
same,TGI,SF-295 CNS,23 µM
same,TGI,UACC-62 melanoma,28.9 µM
same,TGI,NCI-H460 lung,36.7 µM
same,TGI,HCT-15 colon,37.1 µM
same,TGI,EKVX NSCLC,11.5 µM
same,TGI,NCI-H23 lung,34.9 µM
same,TGI,CAKI-1 renal,2680 nM
same,TGI,HCC-2998 colon,> 57.8 µM
same,TGI,IGROV1 ovarian,26.6 µM
same,TGI,HOP-92 NSCLC,3.22 µM
same,TGI,K-562 leukemia,> 100 µM
same,TGI,M14 melanoma,10.6 µM
same,TGI,PC-3 prostate,30.7 µM
same,TGI,SF-268 CNS,32.1 µM
same,TGI,MCF7 breast,11.2 µM
same,TGI,LOX IMVI melanoma,> 36 µM
same,TGI,OVCAR-5 ovarian,35.1 µM
same,TGI,T-47D breast,> 22.1 µM
same,TGI,SF-539 CNS,31.3 µM
same,TGI,UACC-257 melanoma,7.23 µM
same,TGI,UO-31 renal,3.62 µM
same,TGI,SNB-19 CNS,30.9 µM
same,TGI,OVCAR-3 ovarian,19 µM
same,TGI,KM12 colon,32.2 µM
same,TGI,MOLT-4 leukemia,2940 nM
same,TGI,U251 CNS,33.1 µM
same,TGI,ACHN renal,3.77 µM
same,TGI,RXF 393 renal,3.54 µM
same,TGI,DU-145 prostate,> 52.3 µM
same,TGI,MDA-MB-435,7.81 µM
same,TGI,A498 renal,29.5 µM
same,TGI,786-0 renal,3.59 µM
same,TGI,SN12C renal,12.2 µM
same,TGI,HS 578T breast,54.8 µM
same,TGI,SK-MEL-2 melanoma,35.3 µM
same,TGI,COLO 205 colon,4.88 µM
same,TGI,MDA-N,28 µM
same,TGI,RPMI-8226 leukemia,> 100 µM
same,TGI,NCI/ADR-RES ovarian,65.1 µM
same,TGI,SK-MEL-28 melanoma,> 20.8 µM
same,TGI,HT29 colon,4.67 µM
same,TGI,A549 NSCLC,37.2 µM
same,TGI,HOP-62 NSCLC,34.1 µM
same,TGI,OVCAR-4 ovarian,30.2 µM
N#CCc1nc(-c2ccccc2)n[nH]1,TGI,SNB-75 CNS,> 100 µM
same,TGI,NCI-H522 lung,> 100 µM
same,TGI,SR leukemia,> 100 µM
same,TGI,BT-549 breast,> 100 µM
same,TGI,HCT-116 colon,> 100 µM
same,TGI,SK-MEL-5 melanoma,> 100 µM
same,TGI,MDA-MB-231 breast,> 100 µM
same,TGI,OVCAR-8 ovarian,> 100 µM
same,TGI,SK-OV-3 ovarian,> 100 µM
same,TGI,TK-10 renal,> 100 µM
same,TGI,SF-295 CNS,> 100 µM
same,TGI,UACC-62 melanoma,> 100 µM
same,TGI,NCI-H460 lung,> 100 µM
same,TGI,HCT-15 colon,> 100 µM
same,TGI,EKVX NSCLC,> 100 µM
same,TGI,NCI-H23 lung,> 100 µM
same,TGI,CAKI-1 renal,> 100000 nM
same,TGI,HCC-2998 colon,> 100 µM
same,TGI,IGROV1 ovarian,> 100 µM
same,TGI,K-562 leukemia,> 100 µM
same,TGI,M14 melanoma,> 100 µM
same,TGI,PC-3 prostate,> 100 µM
same,TGI,SF-268 CNS,> 100 µM
same,TGI,MCF7 breast,> 100 µM
same,TGI,LOX IMVI melanoma,> 100 µM
same,TGI,OVCAR-5 ovarian,> 100 µM
same,TGI,T-47D breast,> 100 µM
same,TGI,CCRF-CEM leukemia,> 100 µM
same,TGI,SF-539 CNS,> 100 µM
same,TGI,UACC-257 melanoma,> 100 µM
same,TGI,UO-31 renal,> 100 µM
same,TGI,SNB-19 CNS,> 100 µM
same,TGI,OVCAR-3 ovarian,> 100 µM
same,TGI,KM12 colon,> 100 µM
same,TGI,HL-60(TB) leukemia,> 100 µM
same,TGI,MOLT-4 leukemia,> 100000 nM
same,TGI,MALME-3M melanoma,> 100 µM
same,TGI,ACHN renal,> 100 µM
same,TGI,RXF 393 renal,> 100 µM
same,TGI,DU-145 prostate,> 100 µM
same,TGI,MDA-MB-435,> 100 µM
same,TGI,786-0 renal,> 100 µM
same,TGI,SN12C renal,> 100 µM
same,TGI,HS 578T breast,> 100 µM
same,TGI,SK-MEL-2 melanoma,> 100 µM
same,TGI,COLO 205 colon,> 100 µM
same,TGI,MDA-N,> 100 µM
same,TGI,NCI/ADR-RES ovarian,> 100 µM
same,TGI,SW-620 colon,> 100 µM
same,TGI,HT29 colon,> 100 µM
same,TGI,A549 NSCLC,> 100 µM
same,TGI,HOP-62 NSCLC,> 100 µM
same,TGI,OVCAR-4 ovarian,> 100 µM

# Reference: PubChem BioAssay (NCI)
